Laboratory results: the supplement of paper PMC10307832

Legend:
Assay in all cases: relative viability (nuclei count vs DMSO), 5 days (fraction); higher = more cells survive
[1] = compound: O=C(NCCCNc1nc(Nc2cccc(NC(=O)N3CCCC3)c2)ncc1I)c1cccs1 [BX 795]
Summary of the method: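 Viability is treated-well nuclei as a fraction of vehicle-well nuclei, reported as the median across plates. Before counting, lung cancer cell lines were kept overnight at 37 °C in 1536-well plates, pinned with five √10-spaced library-drug doses on vehicle-anchored plates, and left 5 days without medium change, then fixed, permeabilised and Hoechst-stained in one step, imaged at 4× and counted by MetaXpress. A plate passed only if control CV was below 25% and at least one doubling occurred.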

[2] = compound: O=C(NCCCNc1nc(Nc2cccc(NC(=O)N3CCCC3)c2)ncc1I)c1cccs1 [BX 795] + C[C@]1(O)C[C@@H](c2nc(-c3ccc4ccc(-c5ccccc5)nc4c3)c3c(N)nccn32)C1 [Linsitinib] (partner 1 µM)
Summary of the method: (§1)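 Each reported value is a median over duplicate plates. It expresses relative viability: treated-well nuclei count divided by vehicle-well nuclei count. Lung cancer cell lines in 1536-well plates were dosed by pin tool a day after seeding, alone with one drug or with a fixed anchor-drug dose plus five library-drug doses (not always all listed) in √10 steps, and nuclei were counted after 5 days.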

[3] = compound: O=C(NCCCNc1nc(Nc2cccc(NC(=O)N3CCCC3)c2)ncc1I)c1cccs1 [BX 795] + NC(=O)Nc1cc(-c2cccc(F)c2)sc1C(=O)N[C@H]1CCCNC1 [AZD7762] (partner 0.2 µM)
Summary of the method: as §1

[4] = compound: O=C(NCCCNc1nc(Nc2cccc(NC(=O)N3CCCC3)c2)ncc1I)c1cccs1 [BX 795] + Cc1cc(Nc2cc(N3CCN(C)CC3)nc(Sc3ccc(NC(=O)C4CC4)cc3)n2)n[nH]1 [Tozasertib] (partner 0.1 µM)
Summary of the method: as §1

[5] = compound: O=C(NCCCNc1nc(Nc2cccc(NC(=O)N3CCCC3)c2)ncc1I)c1cccs1 [BX 795] + COc1cccc2cc(-c3nc([C@H]4CC[C@H](C(=O)O)CC4)n4ncnc(N)c34)[nH]c12 [OSI-027] (partner 0.5 µM)
Summary of the method: as §1

Cell Line | relative viability ([1]; 0.04 µM) | relative viability ([1]; 0.1265 µM) | relative viability ([1]; 0.4 µM) | relative viability ([1]; 1.265 µM) | relative viability ([2]; first compound 0.04 µM) | relative viability ([2]; first compound 0.1265 µM) | relative viability ([2]; first compound 0.4 µM) | relative viability ([2]; first compound 1.265 µM) | relative viability ([3]; first compound 0.04 µM) | relative viability ([3]; first compound 0.1265 µM) | relative viability ([3]; first compound 0.4 µM) | relative viability ([3]; first compound 1.265 µM) | relative viability ([4]; first compound 0.04 µM) | relative viability ([4]; first compound 0.1265 µM) | relative viability ([4]; first compound 0.4 µM) | relative viability ([4]; first compound 1.265 µM) | relative viability ([5]; first compound 0.04 µM) | relative viability ([5]; first compound 0.1265 µM) | relative viability ([5]; first compound 0.4 µM) | relative viability ([5]; first compound 1.265 µM)
201T | 0.983 | 0.996 | 1.07 | 1.04 | 1.06 | 1.08 | 1.04 | 1.03 | 0.6 | 0.603 | 0.597 | 0.628 | 1.06 | 0.918 | 1.11 | 0.963 | 0.946 | 0.675 | 0.775 | 0.824
A-427 | 1.08 | 0.905 | 0.998 | 0.808 | 1.17 | 1.13 | 1.15 | 0.982 | 0.774 | 0.843 | 0.694 | 0.647 | 0.227 | 0.148 | 0.179 | 0.136 | 0.514 | 0.476 | 0.51 | 0.299
ABC-1 | 0.888 | 0.797 | 0.917 | 0.906 | 0.849 | 0.914 | 0.765 | 0.549 | 0.83 | 0.924 | 0.745 | 0.838 | 0.193 | 0.151 | 0.145 | 0.148 | 0.577 | 0.512 | 0.459 | 0.33
BEN | 0.907 | 1.12 | 0.952 | 1.05 | 0.996 | 0.944 | 0.842 | 0.864 | 0.659 | 0.653 | 0.587 | 0.647 | 0.606 | 0.447 | 0.523 | 0.44 | 0.264 | 0.297 | 0.257 | 0.26
CAL-12T | 0.949 | 0.992 | 0.882 | 0.623 | 0.833 | 0.901 | 0.723 | 0.374 | 0.555 | 0.617 | 0.609 | 0.584 | 0.323 | 0.288 | 0.298 | 0.263 | 0.726 | 0.834 | 0.669 | 0.186
COR-L23 | 1.04 | 1.04 | 1.05 | 0.669 | 0.909 | 0.827 | 0.961 | 0.4 |  |  |  |  | 0.201 | 0.186 | 0.168 | 0.111 | 0.843 | 0.769 | 0.82 | 0.501
COR-L 105 | 0.985 | 0.868 | 0.776 | 0.661 | 1.08 | 0.768 | 0.849 | 0.447 |  |  |  |  | 0.391 | 0.362 | 0.405 | 0.267 | 0.659 | 0.665 | 0.582 | 0.466
ChaGo-K-1 | 0.947 | 1.06 | 0.959 | 0.981 |  |  |  |  | 0.797 | 0.864 | 0.858 | 0.815 | 0.175 | 0.226 | 0.205 | 0.212 | 0.632 | 0.553 | 0.548 | 0.432
